# Reference: PMC9374667 (Communications Biology, 2022)
# Several values for one entry are separate records, joined by “and”; a condition that tells them apart may be missing. Equal values may be shown once.
# Assays:
# [1] = target: T1, TBK1 (Mus musculus, UniProt Q9WUN2); assay: TBK1 kinase activity in TNF-α induced 3T3-L1 adipocytes; type: cell-based, Murine; design: host or cells: differentiated 3T3-L1 adipocytes (Lipofectamine 2000); TBK1 kinase activity: unit not given here; conditions: for TBK1 kinase activity: Figure 7g, replicates
# T1 sequence (Q9WUN2 1-729): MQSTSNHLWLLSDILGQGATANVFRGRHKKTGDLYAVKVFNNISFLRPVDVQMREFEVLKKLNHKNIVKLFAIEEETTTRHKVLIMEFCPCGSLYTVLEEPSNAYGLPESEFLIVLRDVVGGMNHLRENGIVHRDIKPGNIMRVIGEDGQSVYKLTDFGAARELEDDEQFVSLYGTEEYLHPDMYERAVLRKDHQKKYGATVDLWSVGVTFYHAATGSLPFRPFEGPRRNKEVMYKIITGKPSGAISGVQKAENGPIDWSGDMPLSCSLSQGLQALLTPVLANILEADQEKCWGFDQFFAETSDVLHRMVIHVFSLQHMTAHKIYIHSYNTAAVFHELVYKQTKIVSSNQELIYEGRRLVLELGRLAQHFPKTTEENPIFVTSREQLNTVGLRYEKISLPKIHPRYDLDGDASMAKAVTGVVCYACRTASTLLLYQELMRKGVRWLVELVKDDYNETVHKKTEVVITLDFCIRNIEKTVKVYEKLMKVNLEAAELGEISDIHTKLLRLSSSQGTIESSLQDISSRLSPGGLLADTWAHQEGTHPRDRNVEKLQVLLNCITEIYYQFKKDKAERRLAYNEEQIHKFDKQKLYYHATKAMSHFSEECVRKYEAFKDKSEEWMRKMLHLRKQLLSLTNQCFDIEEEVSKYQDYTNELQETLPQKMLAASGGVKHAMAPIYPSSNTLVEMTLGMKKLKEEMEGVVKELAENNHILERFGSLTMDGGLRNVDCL
# [2] = target: T1, TBK1; assay: 3T3-L1 adipocytes transfected with TBK1 plasmid (western blotting, immunofluorescence); type: cell-based, Murine; design: host or cells: differentiated 3T3-L1 adipocytes (Lipofectamine 2000); TBK1 (western blotting, Figure 8a) / p-TBK1 (western blotting, Figure 8b) / p-AMPKα (western blotting, Figure 8c) / UCP1 (western blotting, Figure 8d): scale not given here; conditions: for Mean Intensity: 2μg TBK1 + 10μM BJ, individual replicates
# Protocol: […] The 3T3-L1 adipocytes were washed with PBS for 3 times, fixed with 4% paraformaldehyde solution for 30 min, and then washed again for 3 times. […] The cells were then incubated overnight at 4 °C with the appropriate primary antibodies (1:100 dilution). The next day, the 3T3-L1 adipocytes were washed and incubated at room temperature with goat anti-rabbit secondary antibody or goat anti-mouse secondary antibody (1:1000 dilution) for 2 h and washed with PBS for 3 times. The nuclei were stained with DAPI. […] Fluorescence images were taken using a laser confocal microscope (SP8, Leica, Germany). At least four images per section were acquired for quantification, and the mean intensity were evaluated using ImageJ. The adipose tissue or 3T3-L1 adipocytes were homogenized by ultrasound in an ice-cold RIPA lysis buffer containing 1% PMSF and centrifuged at 12,000 × g at 4°C for 15 min to collect the supernatant. The BCA protein assay kit (Beyotime, Shanghai, China) was used to detect the total protein concentration. Proteins (20-30 μg) of the sample were separated by 10% SDS-PAGE gel and transferred onto polyvinylidene difluoride (PVDF) membranes. Then the PVDF membranes were blocked in 5% skim milk powder in TBS containing 1% Tween-20 (TBST) for 2 h at room temperature and washed with TBST for 3 times. […] After washing, the membranes were incubated with horseradish peroxidase-conjugated secondary antibodies (in 5% skim milk powder) for 1 h at room temperature. Finally, the membranes were treated with enhanced chemiluminescence agents (Tanon, Shanghai, China) and the signals were monitored using the Tanon 5200 multi chemiluminescent imaging system (Tanon, Shanghai, China).
# [3] = target: T1, TBK1; assay: TBK1 activity assay in eWAT; type: in vivo, mice; design: The adipose tissue was ultrasound-crushed in PBS buffer solution (1:9 w/v) to prepare the tissue homogenate; from tissue; host or cells: epididymal white adipose tissue (eWAT) and brown adipose tissue (BAT) of C57BLKS WT and db/db mice; conditions: for the expression of TBK1 in eWAT of db/db mice: Figure 6c, individual values
# Protocol: The adipose tissue was ultrasound-crushed in PBS buffer solution (1:9 w/v) to prepare the tissue homogenate. The tissue homogenate was centrifuged at 5000 × g for 10 min, and the supernatant was taken for detection. Briefly, samples or standards were added to the microplates pre-coated with IKKε antibody or TBK1 antibody. Then horseradish peroxidase (HRP) labeled antibody was added and incubated at 37 °C for 60 min. After thorough washing, the 3,3′,5,5′-tetramethylbenzidine (TMB) substrate was used for color development, and the absorbance (OD value) was determined at 450 nm.
# [4] = 3T3-L1 adipocytes transfected with TBK1 plasmid, 10 μM BJ, vs TBK1 transfection
smiles,measurement,setting,value
"CC(C)Cc1ccc(C(C)C(=O)[O-])cc1.COc1ccc2cc3[n+](cc2c1OC)CCc1cc2c(cc1-3)OCO2.O.O.O.O [BJ, berberine-ibuprofen]",TBK1 kinase activity,[1]; TNF-α(50ng/ml)+3μM BJ,30.9473 and 32.9827 and 24.4703 and 29.2741 and 25.0999 and 33.9831
same,TBK1 kinase activity,[1]; TNF-α(50ng/ml)+10μM BJ,22.2193 and 16.8634 and 20.5634 and 20.4771 and 22.3055 and 16.9152
same,TBK1 expression level / kinase activity,"[1]; TNF-α induced 3T3-L1 adipocytes, BJ treatment for 24 h",markedly decreased
same,"TBK1 (western blotting, Figure 8a)",[2]; 2μg TBK1+10μM BJ,0.5408 and 0.448 and 0.5761
same,"UCP1 (western blotting, Figure 8d)",[2]; 2μg TBK1+10μM BJ,0.7389 and 0.5561 and 0.5877
same,"p-AMPKα (western blotting, Figure 8c)",[2]; 2μg TBK1+10μM BJ,0.3928 and 0.3723 and 0.348
same,"p-TBK1 (western blotting, Figure 8b)",[2]; 2μg TBK1+10μM BJ,0.5922 and 0.4 and 0.4766
same,"TBK1 (western blotting, Figure 8a)",[2]; 10μM BJ,0.38 and 0.387 and 0.3646
same,"UCP1 (western blotting, Figure 8d)",[2]; 10μM BJ,0.5655 and 0.6018 and 0.6331
same,"p-AMPKα (western blotting, Figure 8c)",[2]; 10μM BJ,0.4524 and 0.4108 and 0.3523
same,"p-TBK1 (western blotting, Figure 8b)",[2]; 10μM BJ,0.5028 and 0.4045 and 0.6995
same,Phosphorylation of TBK1 at Ser172,"[2]; 3T3-L1 adipocytes transfected with TBK1 plasmid, 10 μM BJ",increased the phosphorylation of TBK1 at Ser172
same,Phosphorylation of AMPKα Thr172 and UCP1 protein levels,[2]; [4],increased the phosphorylation of AMPKα Thr172 and increased the UCP1 protein levels
same,TBK1 protein levels,[2]; [4],markedly reduced the TBK1 protein levels
same,Mean Intensity,[2]; Figure S11c,20.873 A.U. and 18.04 A.U. and 17.203 A.U. and 19.263 A.U. and 18.463 A.U. and 18.776 A.U. and 23.056 A.U. and 11.015 A.U. and 23.907 A.U. and 21.41 A.U. and 21.836 A.U. and 20.009 A.U.
same,Mean Intensity,[2]; Figure S11g,11.659 A.U. and 7.08 A.U. and 13.692 A.U. and 12.377 A.U. and 10.165 A.U. and 17.942 A.U. and 13.51 A.U. and 14.616 A.U. and 14.87 A.U. and 10.529 A.U. and 9.155 A.U. and 10.462 A.U.
same,Mean Intensity,[2]; Figure S11d,20.305 A.U. and 17.417 A.U. and 18.699 A.U. and 21.221 A.U. and 16.857 A.U. and 15.382 A.U. and 18.398 A.U. and 14.495 A.U. and 16.691 A.U. and 21.635 A.U. and 11.895 A.U. and 12.802 A.U.
same,Mean Intensity,[2]; sheet Figure S11h,18.036 A.U. and 17.064 A.U. and 12.941 A.U. and 17.572 A.U. and 15.135 A.U. and 12.981 A.U. and 16.45 A.U. and 12.776 A.U. and 13.679 A.U. and 13.503 A.U. and 12.749 A.U. and 17.882 A.U.
same,the expression of TBK1 in eWAT of db/db mice,[3]; db/db+BJ 75mg/kg,0.538 U/g and 0.576 U/g and 0.532 U/g and 0.587 U/g and 0.53 U/g
same,the expression of TBK1 in eWAT of db/db mice,[3]; db/db+BJ 150mg/kg,0.413 U/g and 0.391 U/g and 0.35 U/g and 0.361 U/g and 0.451 U/g and 0.379 U/g
same,TBK1 kinase activity in eWAT,"[3]; db/db mice, both doses of BJ (75 and 150 mg/kg)",significantly reduced
